Measurements taken from patent publication US6878722B2, “Substituted cycloalkyl P1′ hepatitis C virus inhibitors” (Bristol-Myers Squibb Company, priority 2002, dated 2005).

Columns and labels:
Format in all cases: biochemical
[1] = biological target: T1, HCV NS3/4A protease complex (H77C strain, 1a genotype) (Hepatitis C virus genotype 1a, UniProt P27958, C1454S); test: Recombinant HCV NS3/4A protease complex FRET peptide assay, H77C strain
T1 construct: DNA encoding the recombinant HCV NS3/4A protease complex (amino acids 1027 to 1711) for these strains; inferred from the pET21b vector and Ni-NTA purification; made in house; host or cells: Escherichia coli BL21 (DE3), pET21b
Excerpt: (§1) The purpose of this in vitro assay was to measure the inhibition of HCV NS3 protease complexes, derived from the BMS, H77C or J416S strains, as described below, by compounds of the present invention.
(§2) Serum from an HCV-infected patient was obtained from Dr. T. Wright, San Francisco Hospital. An engineered full-length cDNA (compliment deoxyribonucleic acid) template of the HCV genome (BMS strain) was constructed from DNA fragments obtained by reverse transcription-PCR (RT-PCR) of serum RNA (ribonucleic acid) and using primers selected on the basis of homology between other genotype 1a strains. […] The infectious clones, H77C (1a genotype) and J4L6S (1b genotype) were obtained from R. Purcell (NIH) and the sequences are published in Genbank (AAB67036, see Yanagi,M., Purcell,R. H., Emerson,S. U. and Bukh,J. Proc. Natl. Acad. Sci. U.S.A. 94(16),8738-8743 (1997); AF054247, see Yanagi,M., St Claire,M., Shapiro,M., Emerson,S. U., Purcell,R. H. and Bukh,J, Virology 244 (1), 161-172. (1998)).
(§3) The BMS, H77C and J4L6S strains were used for production of recombinant NS3/4A protease complexes. DNA encoding the recombinant HCV NS3/4A protease complex (amino acids 1027 to 1711) for these strains were manipulated as described by P. Gallinari et al. (see Gallinari P, Paolini C, Brennan D, Nardi C, Steinkuhler C, De Francesco R. Biochemistry. 38(17):5620-32, (1999)). […]

[2] = biological target: T2, HCV NS3/4A protease complex (J4L6S strain, 1b genotype) (Hepatitis C virus genotype 1b, UniProt O92972, C1454S/C1711G); test: Recombinant HCV NS3/4A protease complex FRET peptide assay, J4L6S strain
T2 construct: DNA encoding the recombinant HCV NS3/4A protease complex (amino acids 1027 to 1711) for these strains; inferred from the pET21b vector and Ni-NTA purification; made in house; host or cells: Escherichia coli BL21 (DE3), pET21b
Excerpt: as §1, §2, §3

[3] = biological target: T3, HCV NS3/4A protease complex (BMS strain, genotype 1a) (Hepatitis C virus genotype 1a, UniProt P27958, C1454S); test: Recombinant HCV NS3/4A protease complex FRET peptide assay, BMS strain
T3 construct: DNA encoding the recombinant HCV NS3/4A protease complex (amino acids 1027 to 1711) for these strains; inferred from the pET21b vector and Ni-NTA purification; made in house; host or cells: Escherichia coli BL21 (DE3), pET21b
Outline: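 Recombinant NS3/4A complex (aa 1027–1711) with C-terminal three-lysine tail, C1711G and C1454S, expressed in E. coli BL21(DE3) and purified by Ni-NTA then Superdex-S200. Inhibition of the complex from each strain measured in vitro by FRET peptide cleavage.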

[4] = biological target: T4, porcine pancreatic elastase (PPE) (Sus scrofa, UniProt P00772); test: Specificity assay, porcine pancreatic elastase; settings: 2 hr pre-incubation
T4 construct: purchased Sigma
Procedure: The specificities of compounds of the present invention were determined against a variety of serine proteases: human sputum elastase (HS), porcine pancreatic elastase (PPE) and human pancreatic chymotrypsin and one cysteine protease: human liver cathepsin B. In all cases a 96-well plate format protocol using colorimetric p-nitroaniline (pNA) substrate specific for each enzyme was used as described previously (Patent WO 00/09543) with some modifications to the serine protease assays. All enzymes were purchased from Sigma while the substrates were from Bachem.
Each assay included a 2 hr enzyme-inhibitor pre-incubation at room temperature followed by addition of substrate and hydrolysis to ˜30% conversion as measured on a Spectramax Pro microplate reader. Compound concentrations varied from 100 to 0.4 μM depending on their potency. […]
The percentage of inhibition was calculated using the formula: [1−((UVinh−UVblank)/(UVctl−UVblank))]×100 […]

T3 sequence (P27958 1658-1714, looked up, stated change not applied): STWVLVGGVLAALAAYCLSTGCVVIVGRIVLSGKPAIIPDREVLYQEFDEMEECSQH
T3 sequence (P27958 1027-1657, looked up, stated change not applied): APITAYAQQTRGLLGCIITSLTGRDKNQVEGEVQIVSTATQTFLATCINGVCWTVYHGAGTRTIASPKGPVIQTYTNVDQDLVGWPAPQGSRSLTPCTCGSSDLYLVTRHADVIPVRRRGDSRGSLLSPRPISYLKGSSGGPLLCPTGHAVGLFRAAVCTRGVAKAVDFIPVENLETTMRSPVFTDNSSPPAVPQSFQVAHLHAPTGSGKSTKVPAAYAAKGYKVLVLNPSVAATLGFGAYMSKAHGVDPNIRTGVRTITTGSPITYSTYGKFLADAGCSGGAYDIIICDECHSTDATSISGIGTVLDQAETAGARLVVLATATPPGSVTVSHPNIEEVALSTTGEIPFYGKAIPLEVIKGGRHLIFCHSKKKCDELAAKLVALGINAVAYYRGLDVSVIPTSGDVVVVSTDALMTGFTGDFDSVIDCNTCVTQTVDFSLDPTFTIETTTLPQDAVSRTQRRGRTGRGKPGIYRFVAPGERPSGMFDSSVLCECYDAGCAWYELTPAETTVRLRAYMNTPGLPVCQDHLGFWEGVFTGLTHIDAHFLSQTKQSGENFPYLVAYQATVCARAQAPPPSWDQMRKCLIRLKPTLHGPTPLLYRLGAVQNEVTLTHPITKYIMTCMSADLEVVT
T2 sequence (O92972 1027-1711 C1454S/C1711G, one chain of several): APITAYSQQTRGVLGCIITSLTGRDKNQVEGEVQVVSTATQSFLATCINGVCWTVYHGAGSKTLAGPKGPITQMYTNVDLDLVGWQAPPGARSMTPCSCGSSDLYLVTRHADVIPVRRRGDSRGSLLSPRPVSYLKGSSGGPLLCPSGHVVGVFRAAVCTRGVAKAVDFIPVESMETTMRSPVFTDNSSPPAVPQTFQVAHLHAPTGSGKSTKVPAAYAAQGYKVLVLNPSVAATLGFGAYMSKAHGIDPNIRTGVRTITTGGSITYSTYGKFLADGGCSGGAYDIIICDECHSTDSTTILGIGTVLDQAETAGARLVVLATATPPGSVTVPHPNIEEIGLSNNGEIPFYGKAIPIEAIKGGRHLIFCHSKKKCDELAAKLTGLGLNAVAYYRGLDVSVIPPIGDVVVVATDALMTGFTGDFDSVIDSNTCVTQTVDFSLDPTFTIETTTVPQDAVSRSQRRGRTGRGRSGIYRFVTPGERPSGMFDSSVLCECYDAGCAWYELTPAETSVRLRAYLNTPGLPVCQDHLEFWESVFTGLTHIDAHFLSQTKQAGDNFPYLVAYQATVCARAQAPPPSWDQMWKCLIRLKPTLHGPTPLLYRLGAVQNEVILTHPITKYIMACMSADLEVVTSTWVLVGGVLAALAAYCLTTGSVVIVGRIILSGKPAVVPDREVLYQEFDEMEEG
T4 sequence (P00772 27-266): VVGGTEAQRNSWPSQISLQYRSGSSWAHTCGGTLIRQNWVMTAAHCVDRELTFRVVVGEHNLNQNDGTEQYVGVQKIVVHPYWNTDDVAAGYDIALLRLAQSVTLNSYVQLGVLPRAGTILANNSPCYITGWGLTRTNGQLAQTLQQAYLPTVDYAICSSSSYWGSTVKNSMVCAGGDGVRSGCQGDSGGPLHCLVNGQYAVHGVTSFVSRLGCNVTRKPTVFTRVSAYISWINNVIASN
T1 sequence (P27958 1027-1657 C1454S): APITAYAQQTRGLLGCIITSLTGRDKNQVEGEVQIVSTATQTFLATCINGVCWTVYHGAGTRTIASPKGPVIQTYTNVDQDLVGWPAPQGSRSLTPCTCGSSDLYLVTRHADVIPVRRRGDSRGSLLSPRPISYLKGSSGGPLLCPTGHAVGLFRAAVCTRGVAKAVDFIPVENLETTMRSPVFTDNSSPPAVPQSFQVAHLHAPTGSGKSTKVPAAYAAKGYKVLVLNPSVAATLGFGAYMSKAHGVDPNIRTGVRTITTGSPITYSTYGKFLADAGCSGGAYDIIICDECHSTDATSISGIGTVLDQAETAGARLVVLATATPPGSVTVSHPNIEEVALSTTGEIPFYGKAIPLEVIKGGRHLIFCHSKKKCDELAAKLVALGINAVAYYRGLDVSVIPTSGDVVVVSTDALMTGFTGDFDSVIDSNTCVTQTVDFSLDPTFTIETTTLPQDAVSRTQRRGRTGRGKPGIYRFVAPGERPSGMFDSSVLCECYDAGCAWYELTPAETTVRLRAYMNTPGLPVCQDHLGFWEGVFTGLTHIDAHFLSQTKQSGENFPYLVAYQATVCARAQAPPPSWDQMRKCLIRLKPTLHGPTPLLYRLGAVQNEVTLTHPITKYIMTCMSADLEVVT
T1 sequence (P27958 1658-1714 partner, looked up, stated change not applied): as the sequence (P27958 1658-1714, looked up, stated change not applied) above

`C=CC1C[C@]1(NC(=O)[C@@H]1C[C@@H](Oc2cc(-c3ccccc3)nc3cc(OC)ccc23)CN1C(=O)[C@@H](NC(=O)OC(C)(C)C)C(C)(C)C)C(=O)NS(=O)(=O)C1(C)CC1` (stereo in doubt) [Compound 1, (1-{4-(7-Methoxy-2-phenylquinolin-4-yloxy)-2-[1-(1-methylcyclopropanesulfonylaminocarbonyl)-2-vinylcyclopropylcarbamoyl]pyrrolidine-1-carbonyl}-2,2-dimethylpropyl)carbamic acid tert-butyl ester] was tested, and the IC50 [1] was 1.2 nM, the IC50 [2] was 1.1 nM and the IC50 ([3]; IC50 against the NS3/4A BMS strain in the enzyme assay, BMS strain) was 1.8 nM. The IC50 ([3]; IC50 range, NS3/4A BMS Strain) was under 50 nM and the IC50 [4] was over 100 µM.
